# Data: patent US20040142952A1, “Triazoloquinazoline and pyrazolotriazolopyrimidine derivatives, medicinal compositions, adenosine a3 receptor affinity agents, ocular tension lowering agents, preparations for preventing and treating glaucoma and method of lowering ocular tension” (priority 2001, published 2004)
row,Compound,melting point [°C]
1,"CCCCc1nc2nn(CC)cc2c2nc(-c3ccc(F)cc3)nn12 [Example 144, 5-n-butyl-8-ethyl-2-(4-fluorophenyl)pyrazolo[4,3-e]-1,2,4-triazolo[1,5-c]pyrimidine]",146 to 147
2,"CCCCCc1nc2ccccc2c2nc(-c3ccc(O)cc3)nn12 [Example 157, 2-(4-hydroxyphenyl)-5-n-pentyl-1,2,4-triazolo[1,5-c]quinazoline]",214 to 215
3,"CCCCCc1nc2ccccc2c2nc(-c3ccc(C)cc3)nn12 [Example 101, 2-(4-methylphenyl)-5-n-pentyl-1,2,4-triazolo[1,5-c]quinazoline]",129.5 to 131
4,"CCCCc1nc2nn(CCO)cc2c2nc(-c3ccc(OC)cc3)nn12 [Example 141, 5-n-butyl-8-(2-hydroxyethyl)-2-(4-methoxyphenyl)pyrazolo[4,3-e]-1,2,4-triazolo[1,5-c]pyrimidine]",178 to 179
5,"O=C(O)CCCc1nc2ccccc2c2nc(-c3ccc(F)cc3)nn12 [Example 155, 4-[2-(4-fluorophenyl)-1,2,4-triazolo[1,5-c]quinazolin-5-yl]butyric acid]",225 to 226
6,"CCCCc1nc2c(cnn2CCO)c2nc(-c3ccc(C)cc3)nn12 [Example 136, 5-n-butyl-7-(2-hydroxyethyl)-2-(4-methylphenyl)pyrazolo[4,3-e]-1,2,4-triazolo[1,5-c]pyrimidine]",134 to 136
7,"CCCCc1nc2nn(CCC)cc2c2nc(-c3ccc(OC)cc3)nn12 [Example 146, 5-n-butyl-2-(4-methoxyphenyl)-8-n-propylpyrazolo[4,3-e]-1,2,4-triazolo[1,5-c]pyrimidine]",112 to 112.5
8,"CCCCc1nc2cccc(C)c2c2nc(-c3ccccc3)nn12 [Example 49, 5-n-butyl-10-methyl-2-phenyl-1,2,4-triazolo[1,5-c]quinazoline]",123 to 124
9,"CCCCc1nc2nn(C)cc2c2nc(-c3ccc(C)cc3)nn12 [Example 121, 5-n-butyl-8-methyl-2-(4-methylphenyl)pyrazolo[4,3-e]-1,2,4-triazolo[1,5-c]pyrimidine]",180 to 181
10,"CCCCc1nc2c(cnn2C)c2nc(-c3ccccc3)nn12 [Example 110, 5-n-butyl-7-methyl-2-phenylpyrazolo[4,3-e]-1,2,4-triazolo[1,5-c]pyrimidine]",172 to 173
11,"COC(=O)CCCc1nc2ccccc2c2nc(-c3ccccc3)nn12 [Example 96, methyl 4-(2-phenyl-1,2,4-triazolo[1,5-c]quinazolin-5-yl)butyrate]",118.5 to 119.5
12,"CCc1nc2nncc-2c2nc(-c3ccc(OC)cc3)[nH]n12 [Example 63, 5-ethyl-2-(4-methoxyphenyl)pyrazolo[4,3-e]-1,2,4-triazolo[1,5-c]pyrimidine]",274 to 277
13,"CCCCc1nc2ccccc2c2nc(-c3ccc(C(C)(C)C)cc3)nn12 [Example 29, 5-n-butyl-2-(4-t-butylphenyl)-1,2,4-triazolo[1,5-c]quinazoline]",106 to 108
14,"CCOc1ccc(-c2nc3c4ccccc4nc(CC)n3n2)cc1 [Example 72, 2-(4-ethoxyphenyl)-5-ethyl-1,2,4-triazolo[1,5-c]quinazoline]",153 to 154
15,"CCCCc1nc2c(cnn2CCC)c2nc(-c3ccc(F)cc3)nn12 [Example 124, 5-n-butyl-2-(4-fluorophenyl)-7-n-propylpyrazolo[4,3-e]-1,2,4-triazolo[1,5-c]pyrimidine]",105.5 to 106
16,"CCCc1nc2ccc(Cl)cc2c2nc(-c3ccccc3)nn12 [Example 73, 9-chloro-2-phenyl-5-n-propyl-1,2,4-triazolo[1,5-c]quinazoline]",140.5 to 141.5
17,"CCCCc1nc2nncc-2c2nc(-c3ccc(OCCC)cc3)[nH]n12 [Example 14, 5-n-butyl-2-(4-propoxyphenyl)pyrazolo[4,3-e]-1,2,4-triazolo[1,5-c]pyrimidine]",191 to 192
18,"CCCCc1nc2nn(CCC)cc2c2nc(-c3ccccc3)nn12 [Example 113, 5-n-butyl-2-phenyl-8-n-propylpyrazolo[4,3-e]-1,2,4-triazolo[1,5-c]pyrimidine]",107 to 108
19,"Cc1ccc(-c2nc3c4cnnc-4nc(CCCC(=O)O)n3[nH]2)cc1 [Example 150, 4-[2-(4-methylphenyl)pyrazolo[4,3-e]-1,2,4-triazolo[1,5-c]pyrimidin-5-yl]butyric acid]",249 to 251
20,"O=C(O)CCCc1nc2nncc-2c2nc(-c3ccc(Cl)cc3)[nH]n12 [Example 149, 4-[2-(4-chlorophenyl)pyrazolo[4,3-e]-1,2,4-triazolo[1,5-c]pyrimidin-5-yl]butyric acid]",253.5 to 255.5
21,"CCCCc1nc2nn(CCO)cc2c2nc(-c3ccccc3)nn12 [Example 133, 5-n-butyl-8-(2-hydroxyethyl)-2-phenylpyrazolo[4,3-e]-1,2,4-triazolo[1,5-c]pyrimidine]",160.5 to 162
22,"CCCCc1nc2cc(Cl)ccc2c2nc(-c3ccc(F)cc3)nn12 [Example 80, 5-n-butyl-8-chloro-2-(4-fluorophenyl)-1,2,4-triazolo[1,5-c]quinazoline]",185.5 to 186.5
